Assay results taken from US20160213742A1, “COMPOSITIONS AND METHODS FOR THE TREATMENT OF FUNGAL INFECTIONS” (priority 2013, published 2016).
In brackets after ≈: the same amount, converted by molar mass.

Columns and labels:
Type in all cases: cell-based
[1] = tested on: C. parapsilosis ATCC 22019; experiment: microbe, parasite or virus in culture
Method: (§1) The test organisms consisted of strains from the Micromyx collection. Reference isolates were originally received from the American Type Culture Collection (ATCC; Manassas, Va.). Organisms received at Micromyx were initially streaked for isolation on Sabouraud dextrose or potato dextrose agar. Colonies were picked by swab from the medium and resuspended in the appropriate broth containing cryoprotectant. The suspensions were aliquoted into cryogenic vials and maintained at −80° C. Prior to testing, Candida isolates were streaked from the frozen vials on Sabouraud dextrose agar. The yeast isolates were incubated at overnight at 35° C. before use. The fungal isolates were incubated at least 7 days on Sabouraud dextrose agar slants at 35° C. before harvesting.
(§2) Isolates were tested in RPMI medium (Catalog No. SH30011.04; Lot No. AWA92121B; HyClone Labs, Logan, Utah) which was prepared according to CLSI guidelines. The pH of the medium was adjusted to 7.0 with 1 N NaOH. The medium was sterile filtered using a 0.2 μm PES filter and stored at 4° C. until used.
(§3) The MIC assay method employed automated liquid handlers to conduct serial dilutions and liquid transfers. Automated liquid handlers included the Multidrop 384 (Labsystems, Helsinki, Finland), Biomek 2000 and Biomek FX (Beckman Coulter, Fullerton Calif.). The wells in columns 2-12 in standard 96-well microdilution plates (Costar 3795) were filled with 150 μl of the correct diluent (50% DMSO for investigational compounds, 100% DMSO for comparator compounds). These would become the mother plates' from which ‘daughter’ or test plates would be prepared. Stocks were diluted to 40× the desired top concentration in the test plates in the indicated solvent, and 300 μL of the 40× stock was dispensed into the appropriate well in Column 1 of the mother plates. The Biomek 2000 was used to make serial serial 2-fold dilutions through Column 11 in the “mother plate”. The wells of Column 12 contained no drug and served as the organism growth control wells.
(§4) The daughter plates were loaded with 185 μL per well of RPMI described above using the Multidrop 384. The daughter plates were prepared using the Biomek FX which transferred 5 μL of drug solution from each well of a mother plate to the corresponding well of the daughter plate in a single step.
(§5) A standardized inoculum of each organism was prepared. For Candida, colonies were picked from the streak plate and a suspension was prepared in RPMI medium equal to a 0.5 McFarland standard, then diluted 1:100 in RPMI and transferred to compartments of sterile reservoirs divided by length (Beckman Coulter). For the Aspergillus isolates, previously prepared and quantitated suspensions were used to make dilutions in RPMI to reach 20× the final concentration. These dilutions were also transferred to compartments of sterile reservoirs divided by length (Beckman Coulter). The final concentration of the Aspergillus isolates was approximately 0.2-2.5×10^4 CFU/mL.
(§6) The Biomek 2000 was used to inoculate the plates. Daughter plates were placed on the Biomek 2000 work surface reversed so that inoculation took place from low to high drug concentration. The Biomek 2000 delivered 10 μL of standardized inoculum into each well. Thus, the wells of the daughter plates ultimately contained 185 μL of RPMI, 5 μL of drug solution, and 10 μL of inoculum. The final concentration of DMSO in the test well was 2.5% for the evaluated comparators and 1.25% for the investigational agents.
(§7) Plates were stacked 3 high, covered with a lid on the top plate, placed into plastic bags, and incubated at 35° C. for approximately 24-48 hr prior to reading. Plates were read when inoculum was confluent in growth wells. Plates were viewed from the bottom using a plate viewer. […] MICs were read where visible growth of the organism was inhibited. MECs were read where the growth shifted to a small, rounded, compact hyphal form as compared to the hyphal growth seen in the growth control well.

[2] = tested on: C. glabrata ATCC 90030; experiment: microbe, parasite or virus in culture
Method: as §1, §2, §3, §4, §5, §6, §7

[3] = tested on: C. krusei ATCC 14243; experiment: microbe, parasite or virus in culture
Method: as §1, §2, §3, §4, §5, §6, §7

[4] = tested on: C. albicans ATCC 90028; experiment: microbe, parasite or virus in culture
Method: as §1, §2, §3, §4, §5, §6, §7

[5] = tested on: A. fumigatus MX 5944; experiment: MEC assay (Example 31); details: RPMI pH 7.0, 35° C., 24-48 hr
Method: as §1, §2, §3, §4, §5, §6, §7

[6] = tested on: A. fumigatus MYA-3626; experiment: MEC assay (Example 31); details: RPMI pH 7.0, 35° C., 24-48 hr
Method: as §1, §2, §3, §4, §5, §6, §7

[7] = tested on: A. fumigatus ATCC 13073; experiment: MEC assay (Example 31); details: RPMI pH 7.0, 35° C., 24-48 hr
Method: as §1, §2, §3, §4, §5, §6, §7

[8] = tested on: A. flavus MX 5948; experiment: MEC assay (Example 31); details: RPMI pH 7.0, 35° C., 24-48 hr
Method: as §1, §2, §3, §4, §5, §6, §7

[9] = tested on: A. fumigatus MYA-4609; experiment: MEC assay (Example 31); details: RPMI pH 7.0, 35° C., 24-48 hr
Method: as §1, §2, §3, §4, §5, §6, §7

[10] = C. parapsilosis ATCC 22019, RPMI pH 7.0, 35° C., 24-48 hr

| SMILES | MIC ([1]; ATCC 22019, pH 7) [µg/mL] | MIC ([2]; ATCC 90030, pH 7) [µg/mL] | MIC ([3]; ATCC 14243, pH 7) [µg/mL] | MIC ([4]; ATCC 90028, pH 7) [µg/mL] | MEC [5] [µg/mL] | MEC [6] [µg/mL] | MEC [7] | MEC [8] | MEC [9] [µg/mL] | MIC [1, 10] [µg/mL] | MIC ([2]; C. glabrata ATCC 90030, RPMI pH 7.0, 35° C., 24-48 hr) [µg/mL] | MIC ([3]; C. krusei ATCC 14243, RPMI pH 7.0, 35° C., 24-48 hr) [µg/mL] | MIC ([4]; C. albicans ATCC 90028, RPMI pH 7.0, 35° C., 24-48 hr) [µg/mL] |
| --- | --- | --- | --- | --- | --- | --- | --- | --- | --- | --- | --- | --- | --- |
| CC[C@H](C)C[C@H](C)CCCCCCCCC(=O)N[C@H]1C[C@@H](O)[C@@H](NCCN)NC(=O)[C@@H]2[C@@H](O)CCN2C(=O)[C@H]([C@H](O)CCNC(=O)[C@H](CCCCN)NC=O)NC(=O)[C@H]([C@H](O)[C@@H](O)c2ccc(O)cc2)NC(=O)[C@@H]2C[C@@H](O)CN2C(=O)[C@H]([C@@H](C)O)NC1=O [Compound 25] | 1 (≈ 0.8 µM) | 0.5 (≈ 0.4 µM) | 2 (≈ 1.6 µM) | 0.12 (≈ 0.096 µM) |  |  |  |  |  |  |  |  |  |
| CC[C@H](C)C[C@H](C)CCCCCCCCC(=O)N[C@H]1C[C@@H](O)[C@@H](NCCN)NC(=O)[C@@H]2[C@@H](O)CCN2C(=O)[C@H]([C@H](O)CCNC(=O)CCNC(=O)[C@H](Cc2ccccc2)NC(=O)[C@H](CC(C)C)NC(=O)[C@H](CCSC)NC(C)=O)NC(=O)[C@H]([C@H](O)[C@@H](O)c2ccc(O)cc2)NC(=O)[C@@H]2C[C@@H](O)CN2C(=O)[C@H]([C@@H](C)O)NC1=O [Compound 7] | 32 (≈ 20 µM) | 8 (≈ 5.01 µM) | 16 (≈ 10 µM) | 2 (≈ 1.25 µM) | 1 | 0.5 | 1 µg/mL | 1 µg/mL | 0.5 |  |  |  |  |
| CC[C@H](C)C[C@H](C)CCCCCCCCC(=O)N[C@H]1C[C@@H](O)[C@@H](NCCNC(=O)CCNC(=O)[C@H](Cc2ccccc2)NC(=O)[C@H](CC(C)C)NC(=O)[C@H](CCSC)NC(=O)OCC(C)C)NC(=O)[C@@H]2[C@@H](O)CCN2C(=O)[C@H]([C@H](O)CCN)NC(=O)[C@H]([C@H](O)[C@@H](O)c2ccc(O)cc2)NC(=O)[C@@H]2C[C@@H](O)CN2C(=O)[C@H]([C@@H](C)O)NC1=O [Compound 6] | >16 | 4 (≈ 2.42 µM) | 8 (≈ 4.83 µM) | 2 (≈ 1.21 µM) |  |  |  |  |  |  |  |  |  |
| CC[C@H](C)C[C@H](C)CCCCCCCCC(=O)N[C@H]1C[C@@H](O)[C@@H](OCCNC(=O)[C@H](Cc2ccccc2)NC(=O)[C@H](CC(C)C)NC(=O)[C@H](CCSC)NC=O)NC(=O)[C@@H]2[C@@H](O)CCN2C(=O)[C@H]([C@H](O)CCN)NC(=O)[C@H]([C@H](O)[C@@H](O)c2ccc(O)cc2)NC(=O)[C@@H]2C[C@@H](O)CN2C(=O)[C@H]([C@@H](C)O)NC1=O [Compound 12] | 8 to 16 | 4 to 8 | 8 to 16 | 1 to 2 | 0.12 to 0.25 | 0.06 to 0.25 | ≦0.03-0.12 μg/mL | ≦0.03-0.12 μg/mL | 0.06 to 0.12 |  |  |  |  |
| CC[C@H](C)C[C@H](C)CCCCCCCCC(=O)N[C@H]1C[C@@H](O)[C@@H](OCCNC(=O)CCNC(=O)[C@H](Cc2ccccc2)NC(=O)[C@H](CC(C)C)NC(=O)[C@H](CCSC)NC=O)NC(=O)[C@@H]2[C@@H](O)CCN2C(=O)[C@H]([C@H](O)CCN)NC(=O)[C@H]([C@H](O)[C@@H](O)c2ccc(O)cc2)NC(=O)[C@@H]2C[C@@H](O)CN2C(=O)[C@H]([C@@H](C)O)NC1=O [Compound 9] |  | 8 (≈ 5.05 µM) |  | 2 (≈ 1.26 µM) | 0.12 | 0.12 | 0.06 to 0.12 µg/mL | 0.06 to 0.12 µg/mL | 0.06 to 0.5 | >16 to 32 |  |  |  |
| CC[C@H](C)C[C@H](C)CCCCCCCCC(=O)N[C@H]1C[C@@H](O)[C@@H](NCCNC(=O)CCNC(=O)[C@H](Cc2ccccc2)NC(=O)[C@H](CC(C)C)NC(=O)[C@H](CCSC)NC(C)=O)NC(=O)[C@@H]2[C@@H](O)CCN2C(=O)[C@H]([C@H](O)CCN)NC(=O)[C@H]([C@H](O)[C@@H](O)c2ccc(O)cc2)NC(=O)[C@@H]2C[C@@H](O)CN2C(=O)[C@H]([C@@H](C)O)NC1=O [Compound 8] | 32 (≈ 20 µM) | 4 (≈ 2.5 µM) | 8 (≈ 5.01 µM) | 2 (≈ 1.25 µM) | 1 | 1 | 1 µg/mL | 1 µg/mL | 1 |  |  |  |  |
| CC[C@H](C)C[C@H](C)CCCCCCCCC(=O)N[C@H]1C[C@@H](O)[C@@H](NCCNC(=O)C(Cc2ccccc2)NC(=O)C(CC(C)C)NC(=O)C(CCSC)NC(=O)Nc2ccc(Cl)cc2)NC(=O)[C@@H]2[C@@H](O)CCN2C(=O)[C@H]([C@H](O)CCN)NC(=O)[C@H]([C@H](O)[C@@H](O)c2ccc(O)cc2)NC(=O)[C@@H]2C[C@@H](O)CN2C(=O)[C@H]([C@@H](C)O)NC1=O (stereo partly shown) [Compound 13a] |  |  |  |  |  |  |  |  |  | 32 (≈ 19.5 µM) | 8 (≈ 4.88 µM) | 16 (≈ 9.77 µM) | 2 (≈ 1.22 µM) |
| CC[C@H](C)C[C@H](C)CCCCCCCCC(=O)N[C@H]1C[C@@H](O)[C@@H](OCCN)NC(=O)[C@@H]2[C@@H](O)CCN2C(=O)[C@H]([C@H](O)CCNC(=O)CCNC(=O)[C@H](Cc2ccccc2)NC(=O)[C@H](CC(C)C)NC(=O)[C@H](CCSC)NC=O)NC(=O)[C@H]([C@H](O)[C@@H](O)c2ccc(O)cc2)NC(=O)[C@@H]2C[C@@H](O)CN2C(=O)[C@H]([C@@H](C)O)NC1=O [Compound 10] | 32 (≈ 20.2 µM) | 8 (≈ 5.05 µM) | 16 (≈ 10.1 µM) | 2 (≈ 1.26 µM) | 0.12 | 0.12 | 0.25 µg/mL | 0.12 µg/mL | 0.12 |  |  |  |  |
| CC[C@H](C)C[C@H](C)CCCCCCCCC(=O)N[C@H]1C[C@@H](O)[C@@H](NCCN)NC(=O)[C@@H]2[C@@H](O)CCN2C(=O)[C@H]([C@H](O)CCNC(=O)CCNC(=O)[C@H](Cc2ccccc2)NC(=O)[C@H](CC(C)C)NC(=O)[C@H](CCSC)NC(=O)OCC(C)C)NC(=O)[C@H]([C@H](O)[C@@H](O)c2ccc(O)cc2)NC(=O)[C@@H]2C[C@@H](O)CN2C(=O)[C@H]([C@@H](C)O)NC1=O [Compound 5] | >4 | 4 (≈ 2.42 µM) | >4 | 2 (≈ 1.21 µM) |  |  |  |  |  |  |  |  |  |
| CC[C@H](C)C[C@H](C)CCCCCCCCC(=O)N[C@H]1C[C@@H](O)[C@@H](NCCN)NC(=O)[C@@H]2[C@@H](O)CCN2C(=O)[C@H]([C@H](O)CCNC(=O)CCC(=O)NCCOCCOCCNC(=O)[C@H](Cc2ccccc2)NC(=O)[C@H](CC(C)C)NC(=O)[C@H](CCSC)NC=O)NC(=O)[C@H]([C@H](O)[C@@H](O)c2ccc(O)cc2)NC(=O)[C@@H]2C[C@@H](O)CN2C(=O)[C@H]([C@@H](C)O)NC1=O [Compound 16] | >32 | 32 (≈ 18.4 µM) | >32 | 2 (≈ 1.15 µM) |  |  |  |  |  |  |  |  |  |
